Experimental data reported in ChEMBL document CHEMBL1157205, “Design, synthesis, and biological evaluation of glycine-based molecular tongs as inhibitors of Abeta1-40 aggregation in vitro” (Bioorg Med Chem, 2008).

What was measured:
[1] = Inhibition of amyloid beta (1 to 40) aggregation assessed as emission of thioflavin T fluorescence in presence of 1,1,1,3,3,3-hexaflouro-2-propanol
[2] = Inhibition of amyloid beta (1 to 40) aggregation assessed as emission of thioflavin T fluorescence at 100 uM in presence of 1,1,1,3,3,3-hexaflouro-2-propanol

SMILES	IC50 [1] [µM]	inhibition [2] [%]
O=c1c(O)c(-c2ccc(O)c(O)c2)oc2cc(O)cc(O)c12 [QUERCETIN]	0.8	–
O=C(CNC(=O)CNC(=O)c1cc([N+](=O)[O-])cc([N+](=O)[O-])c1)NCCCNCCCNC(=O)CNC(=O)CNC(=O)c1cc([N+](=O)[O-])cc([N+](=O)[O-])c1	–	9
COc1cc(C(=O)NCC(=O)NCC(=O)NCC(=O)Nc2ccc(Oc3cccc(NC(=O)CNC(=O)CNC(=O)CNC(=O)c4cc(OC)c(OC)c(OC)c4)c3)cc2)cc(OC)c1OC	–	20
O=C(O)CNC(=O)CNC(=O)CNC(=O)c1cc([N+](=O)[O-])cc([N+](=O)[O-])c1	–	36
O=C(CNC(=O)c1cc([N+](=O)[O-])cc([N+](=O)[O-])c1)NCC(=O)Nc1ccc(Oc2cccc(NC(=O)CNC(=O)CNC(=O)c3cc([N+](=O)[O-])cc([N+](=O)[O-])c3)c2)cc1	–	30
COc1cc(C(=O)NCC(=O)NCC(=O)NCc2cccc(CNC(=O)CNC(=O)CNC(=O)c3cc(OC)c(OC)c(OC)c3)c2)cc(OC)c1OC	–	31
O=C(CNC(=O)c1cc(O)c(O)c(O)c1)NCC(=O)Nc1ccc(Oc2cccc(NC(=O)CNC(=O)CNC(=O)c3cc(O)c(O)c(O)c3)c2)cc1	28	80
O=C(CNC(=O)CNC(=O)c1cc(O)c(O)c(O)c1)NCC(=O)NCc1cccc(CNC(=O)CNC(=O)CNC(=O)CNC(=O)c2cc(O)c(O)c(O)c2)c1	–	4
O=C(CNC(=O)CNC(=O)c1cc([N+](=O)[O-])cc([N+](=O)[O-])c1)NCc1cccc(CNC(=O)CNC(=O)CNC(=O)c2cc([N+](=O)[O-])cc([N+](=O)[O-])c2)c1	–	23
Nc1cccc(Oc2ccc(NC(=O)CNC(=O)CNC(=O)c3cc([N+](=O)[O-])cc([N+](=O)[O-])c3)cc2)c1	–	0
O=C(NCc1cccc(CNC(=O)c2cc([N+](=O)[O-])cc([N+](=O)[O-])c2)c1)c1cc([N+](=O)[O-])cc([N+](=O)[O-])c1	–	4
O=C(CNC(=O)c1cc([N+](=O)[O-])cc([N+](=O)[O-])c1)Nc1ccc(Oc2cccc(NC(=O)CNC(=O)c3cc([N+](=O)[O-])cc([N+](=O)[O-])c3)c2)cc1	–	44
O=C(CNC(=O)c1ccccc1)NCc1cccc(CNC(=O)CNC(=O)c2ccccc2)c1	–	9
O=C(CNC(=O)CNC(=O)c1cc([N+](=O)[O-])cc([N+](=O)[O-])c1)NCC(=O)NCc1cccc(CNC(=O)CNC(=O)CNC(=O)CNC(=O)c2cc([N+](=O)[O-])cc([N+](=O)[O-])c2)c1	–	13
O=C(CNC(=O)C1CCCCC1)NCC(=O)Nc1ccc(Oc2cccc(NC(=O)CNC(=O)CNC(=O)C3CCCCC3)c2)cc1	–	17
O=C(NCc1cccc(CNC(=O)c2cc(O)c(O)c(O)c2)c1)c1cc(O)c(O)c(O)c1	–	61
COc1cc(C(=O)NCc2cccc(CNC(=O)c3cc(OC)c(OC)c(OC)c3)c2)cc(OC)c1OC	–	19
O=C(CNC(=O)CNC(=O)c1ccccc1)NCC(=O)Nc1ccc(Oc2cccc(NC(=O)CNC(=O)CNC(=O)CNC(=O)c3ccccc3)c2)cc1	–	-3
O=C(CNC(=O)CNC(=O)c1ccccc1)NCC(=O)NCc1cccc(CNC(=O)CNC(=O)CNC(=O)CNC(=O)c2ccccc2)c1	–	19
O=C(CNC(=O)c1cc([N+](=O)[O-])cc([N+](=O)[O-])c1)NCc1cccc(CNC(=O)CNC(=O)c2cc([N+](=O)[O-])cc([N+](=O)[O-])c2)c1	–	33

The remaining lines, values ahead:

IC50 [1] [µM]	inhibition [2] [%]	SMILES
–	0	COc1cc(C(=O)NCCCCC(=O)Nc2ccc(Oc3cccc(NC(=O)CCCCNC(=O)c4cc(OC)c(OC)c(OC)c4)c3)cc2)cc(OC)c1OC
–	28	COc1cc(C(=O)NCC(=O)NCc2cccc(CNC(=O)CNC(=O)c3cc(OC)c(OC)c(OC)c3)c2)cc(OC)c1OC
–	9	COc1cc(C(=O)NCC(=O)Nc2ccc(Oc3cccc(NC(=O)CNC(=O)c4cc(OC)c(OC)c(OC)c4)c3)cc2)cc(OC)c1OC
–	4	O=C(CNC(=O)CNC(=O)c1cc([N+](=O)[O-])cc([N+](=O)[O-])c1)NCC(=O)Nc1ccc(Oc2cccc(NC(=O)CNC(=O)CNC(=O)CNC(=O)c3cc([N+](=O)[O-])cc([N+](=O)[O-])c3)c2)cc1
1.5	79	O=C(CNC(=O)c1cc(O)c(O)c(O)c1)Nc1ccc(Oc2cccc(NC(=O)CNC(=O)c3cc(O)c(O)c(O)c3)c2)cc1
–	39	O=C(CNC(=O)c1cc(O)c(O)c(O)c1)NCc1cccc(CNC(=O)CNC(=O)c2cc(O)c(O)c(O)c2)c1
–	7	O=C(CNC(=O)c1ccccc1)Nc1ccc(Oc2cccc(NC(=O)CNC(=O)c3ccccc3)c2)cc1
–	5	O=C(CNC(=O)CNC(=O)c1cc(O)c(O)c(O)c1)NCc1cccc(CNC(=O)CNC(=O)CNC(=O)c2cc(O)c(O)c(O)c2)c1
–	10	O=C(CNC(=O)CNC(=O)c1ccccc1)NCc1cccc(CNC(=O)CNC(=O)CNC(=O)c2ccccc2)c1
–	40	COc1cc(C(=O)NCC(=O)NCC(=O)Nc2ccc(Oc3cccc(NC(=O)CNC(=O)CNC(=O)c4cc(OC)c(OC)c(OC)c4)c3)cc2)cc(OC)c1OC
–	-3	O=C(CNC(=O)c1ccccc1)NCC(=O)Nc1ccc(Oc2cccc(NC(=O)CNC(=O)CNC(=O)c3ccccc3)c2)cc1
–	15	COc1cc(C(=O)NCC(=O)NCC(=O)NCC(=O)NCc2cccc(CNC(=O)CNC(=O)CNC(=O)CNC(=O)c3cc(OC)c(OC)c(OC)c3)c2)cc(OC)c1OC
12	70	O=C(Nc1ccc(Oc2cccc(NC(=O)c3cc(O)c(O)c(O)c3)c2)cc1)c1cc(O)c(O)c(O)c1
–	11	COc1cc(C(=O)NCC(=O)NCC(=O)NCC(=O)O)cc(OC)c1OC
–	3	O=C(NCc1cccc(CNC(=O)c2ccccc2)c1)c1ccccc1
